According to paper PMC7093416, “Selective USP7 inhibition elicits cancer cell killing through a p53-dependent mechanism” (Scientific Reports, 2020):
Where “and” joins values, the source holds several entries; their conditions need not be identical. Equal values may be shown once.

Test system: panel of 484 cancer cell lines
Assay: PRISM cancer cell line profiling, 5 days
Format: cell-based
Design: Viability: scale not given here; AUC: unit not given beside the values
Method: Cancer cell line profiling was performed using the Broad’s PRISM platform. Cell treatment and data analysis were performed as described in Yu et al[42]. Raw Luminex signal was converted to AUC values for each cell line as described. The resulting AUC profile for each compound was modeled against DepMap using the limma package in R[71]. Because hotspot mutation analysis was performed against DepMap, TP53 annotations in Fig. 6c,d are directly from DepMap.

[1] = CAL12T_LUNG, pert_dose 6.10E-04
[2] = CAL27_UPPER_AERODIGESTIVE_TRACT, pert_dose 6.10E-04
[3] = CAL29_URINARY_TRACT, pert_dose 6.10E-04

With `COc1ccc(C2=N[C@@H](c3ccc(Cl)cc3)[C@@H](c3ccc(Cl)cc3)N2C(=O)N2CCNC(=O)C2)c(OC(C)C)c1` [Nutlin-3A] the Viability (CAKI1_KIDNEY, pert_dose 6.10E-04) was 1.281, the AUC (CAL12T_LUNG) was 1.284 and the “MFI CAL12T_LUNG” value [1] was 11558 and 13284 and 9249.5 and 12951.5 and 13183. The Viability [1] was 1.338, the AUC (CAL27_UPPER_AERODIGESTIVE_TRACT) was 1.085 and the “MFI CAL27_UPPER_AERODIGESTIVE_TRACT” value [2] was 20059.5 and 19151.5 and 25415 and 19627.5 and 22725.5. The Viability [2] was 1.031, the AUC (CAL29_URINARY_TRACT) was 1.177 and the “MFI CAL29_URINARY_TRACT” value [3] was 9011 and 8957 and 10277.5 and 8231.5 and 10904. For the same molecule, the Viability [3] was 1.551, the AUC (CAL51_BREAST) was 1.0736 and the “MFI CAL51_BREAST” value (CAL51_BREAST, pert_dose 6.10E-04) was 12828 and 10989 and 10227 and 16366 and 8548.5. The AUC (CAL54_KIDNEY) was 1.148, the Viability (CAL54_KIDNEY, pert_dose 6.10E-04) was 1.061 and the AUC (CAL62_THYROID) was 1.139. The “MFI CAL62_THYROID” value (CAL62_THYROID, pert_dose 6.10E-04) was 19352 and 23281.5 and 23347 and 21690 and 18079, the AUC (CAL78_BONE) was 1.142 and the AUC (CAL120_BREAST) was 1.092. The “MFI CAL120_BREAST” value (CAL120_BREAST, pert_dose 6.10E-04) was 15064 and 12880 and 13041 and 15017 and 12012.5, the AUC (CALU1_LUNG) was 0.9872 and the AUC (CALU6_LUNG) was 1.11. The “MFI CALU6_LUNG” value (CALU6_LUNG, pert_dose 6.10E-04) was 19804 and 26726 and 21267 and 25781.5 and 28928.5, the AUC (CAMA1_BREAST) was 1.153 and the “MFI CAMA1_BREAST” value (CAMA1_BREAST, pert_dose 6.10E-04) was 1412 and 1959.5 and 1768 and 1670.5 and 1819.5. For the same molecule, the AUC (CAOV3_OVARY) was 1.212, the “MFI CAOV3_OVARY” value (CAOV3_OVARY, pert_dose 6.10E-04) was 4238 and 2774 and 4113 and 2696.5 and 4069 and the AUC (CAPAN2_PANCREAS) was 1.279. The AUC (CCFSTTG1_CENTRAL_NERVOUS_SYSTEM) was 0.9997, the “MFI CCFSTTG1_CENTRAL_NERVOUS_SYSTEM” value (CCFSTTG1_CENTRAL_NERVOUS_SYSTEM, pert_dose 6.10E-04) was 2625 and 1957.5 and 2163 and 2860 and 1678.5 and the AUC (CFPAC1_PANCREAS) was 1.133. For the same molecule, the “MFI CFPAC1_PANCREAS” value (CFPAC1_PANCREAS, pert_dose 6.10E-04) was 12988 and 12890.5 and 8831 and 16982.5 and 13585.5, the AUC (CHL1_SKIN) was 1.101 and the “MFI CHL1_SKIN” value (CHL1_SKIN, pert_dose 6.10E-04) was 25277 and 22527.5 and 16250 and 20018.5 and 22530. For the same molecule, the AUC (CJM_SKIN) was 1.181, the “MFI CJM_SKIN” value (CJM_SKIN, pert_dose 6.10E-04) was 9757.5 and 5484 and 9139.5 and 7090.5 and 8423 and the AUC (CL34_LARGE_INTESTINE) was 1.025. For the same molecule, the “MFI CL34_LARGE_INTESTINE” value (CL34_LARGE_INTESTINE, pert_dose 6.10E-04) was 3669 and 4269 and 5343.5 and 2751 and 2702, the AUC (COLO668_LUNG) was 1.1 and the AUC (COLO679_SKIN) was 0.88. For the same molecule, the “MFI COLO679_SKIN” value (COLO679_SKIN, pert_dose 6.10E-04) was 6568.5 and 8262 and 8427 and 10413 and 7461, the AUC (COLO680N_OESOPHAGUS) was 1.159 and the “MFI COLO680N_OESOPHAGUS” value (COLO680N_OESOPHAGUS, pert_dose 6.10E-04) was 5933.5 and 4468 and 6131 and 5620 and 4657. For the same molecule, the AUC (COLO741_SKIN) was 1.078, the “MFI COLO741_SKIN” value (COLO741_SKIN, pert_dose 6.10E-04) was 3302 and 2497 and 3485 and 3755 and 2923 and the AUC (COLO783_SKIN) was 1.125. For the same molecule, the “MFI COLO783_SKIN” value (COLO783_SKIN, pert_dose 6.10E-04) was 9292.5 and 11134.5 and 11660 and 10125 and 10684, the AUC (COLO792_SKIN) was 0.8537 and the “MFI COLO792_SKIN” value (COLO792_SKIN, pert_dose 6.10E-04) was 5216 and 3883.5 and 6906 and 3698 and 6181. The AUC (COLO800_SKIN) was 0.9456, the “MFI COLO800_SKIN” value (COLO800_SKIN, pert_dose 6.10E-04) was 9562 and 9966.5 and 9539 and 8965 and 10824 and the AUC (CORL23_LUNG) was 1.082. For the same molecule, the “MFI CORL23_LUNG” value (CORL23_LUNG, pert_dose 6.10E-04) was 18251 and 21912.5 and 23721 and 22738.5 and 19507.5, the AUC (CORL105_LUNG) was 0.9293 and the “MFI CORL105_LUNG” value (CORL105_LUNG, pert_dose 6.10E-04) was 3831.5 and 2259.5 and 3159 and 2363.5 and 2088.5. For the same molecule, the AUC (COV362_OVARY) was 1.112, the “MFI COV362_OVARY” value (COV362_OVARY, pert_dose 6.10E-04) was 17061 and 16771 and 18006 and 14276 and 17716.5 and the AUC (COV434_OVARY) was 0.499. The “MFI COV434_OVARY” value (COV434_OVARY, pert_dose 6.10E-04) was 2287 and 4116 and 4254.5 and 3247 and 3013, the AUC (DANG_PANCREAS) was 1.183 and the “MFI DANG_PANCREAS” value (DANG_PANCREAS, pert_dose 6.10E-04) was 3936.5 and 2389 and 3329.5 and 4098 and 2374. For the same molecule, the AUC (DAOY_CENTRAL_NERVOUS_SYSTEM) was 1.063, the “MFI DAOY_CENTRAL_NERVOUS_SYSTEM” value (DAOY_CENTRAL_NERVOUS_SYSTEM, pert_dose 6.10E-04) was 3341 and 3770 and 5391 and 3660 and 5169 and the AUC (DBTRG05MG_CENTRAL_NERVOUS_SYSTEM) was 0.8565. The “MFI DBTRG05MG_CENTRAL_NERVOUS_SYSTEM” value (DBTRG05MG_CENTRAL_NERVOUS_SYSTEM, pert_dose 6.10E-04) was 9502 and 12025.5 and 11037.5 and 11248 and 13043, the AUC (DETROIT562_UPPER_AERODIGESTIVE_TRACT) was 1.165 and the “MFI DETROIT562_UPPER_AERODIGESTIVE_TRACT” value (DETROIT562_UPPER_AERODIGESTIVE_TRACT, pert_dose 6.10E-04) was 11765 and 10497.5 and 16246.5 and 13989 and 13619. For the same molecule, the AUC (DKMG_CENTRAL_NERVOUS_SYSTEM) was 0.8274, the AUC (DMS273_LUNG) was 1.073 and the “MFI DMS273_LUNG” value (DMS273_LUNG, pert_dose 6.10E-04) was 11114.5 and 10196.5 and 9771 and 10022 and 13797. For the same molecule, the AUC (DU145_PROSTATE) was 1.079, the “MFI DU145_PROSTATE” value (DU145_PROSTATE, pert_dose 6.10E-04) was 21126.5 and 23687 and 17071 and 16938.5 and 18848 and the AUC (DV90_LUNG) was 0.8353. The “MFI DV90_LUNG” value (DV90_LUNG, pert_dose 6.10E-04) was 7893 and 6981 and 9620.5 and 7167 and 6096.5, the “∆ (AUC, TP53 mutation vs WT; decreased sensitivity)” value (DepMap TP53 mutation annotation) was 0.0919 and the AUC (EBC1_LUNG) was 1.0742. For the same molecule, the “MFI EBC1_LUNG” value (EBC1_LUNG, pert_dose 6.10E-04) was 12931 and 11768 and 13134.5 and 11101.5 and 10612, the AUC (ECGI10_OESOPHAGUS) was 1.177 and the AUC (EFM192A_BREAST) was 1.203. For the same molecule, the AUC (EFO21_OVARY) was 1.106, the “MFI EFO21_OVARY” value (EFO21_OVARY, pert_dose 6.10E-04) was 6907 and 7302 and 6854 and 7260 and 4429 and the AUC (EFO27_OVARY) was 1.1574. For the same molecule, the “MFI EFO27_OVARY” value (EFO27_OVARY, pert_dose 6.10E-04) was 9100.5 and 10537 and 7873 and 14276 and 9706, the AUC (EN_ENDOMETRIUM) was 1.075 and the AUC (ES2_OVARY) was 1.089. The “MFI ES2_OVARY” value (ES2_OVARY, pert_dose 6.10E-04) was 18459 and 23432 and 12997.5 and 16216 and 13403, the AUC (ESS1_ENDOMETRIUM) was 1.129 and the “MFI ESS1_ENDOMETRIUM” value (ESS1_ENDOMETRIUM, pert_dose 6.10E-04) was 2916 and 2399 and 2841.5 and 2277 and 1505. For the same molecule, the AUC (EWS502_BONE) was 1.109, the “MFI EWS502_BONE” value (EWS502_BONE, pert_dose 6.10E-04) was 3099 and 3510.5 and 2209 and 3124 and 3278.5 and the AUC (FADU_UPPER_AERODIGESTIVE_TRACT) was 1.169. For the same molecule, the “MFI FADU_UPPER_AERODIGESTIVE_TRACT” value (FADU_UPPER_AERODIGESTIVE_TRACT, pert_dose 6.10E-04) was 3959.5 and 4203 and 5203 and 4740.5 and 7313 and the AUC (FTC133_THYROID) was 1.156.
